Laboratory results published in patent publication US20220081422A1 (Janssen Biotech, Inc., priority 2019, published 2022).

Tests used:
human DHODH = molecular target: T1, human DHODH (Homo sapiens, UniProt Q02127); assay: DHODH enzymatic assay (DCIP absorbance, end-point); format: biochemical; details: purified human DHODH, DCIP as final electron acceptor, end-point mode; read-out: hDHODH IC50
T1 construct: purchased Proteros PR-0044
Method: In vitro Assay: DHODH enzymatic assay
To detect DHODH enzyme activities, dichloroindophenol (DCIP) is added as the final electron acceptor in the assay. DCIP can accept electrons from the reduced coenzyme Q generated in the assay, or from dihydroorotate (DHO) via FMN by binding presumably to the ubiquinone pocket. […] The assay buffer contained […], pH 7.5, 150 mM NaCl, 0.5 mM EDTA, and 0.1% Triton X-100 in MilliQ water. Substrate consisting of 20 mM DHO, 5 mM CoQ6, and 1 mM DCIP in assay buffer, initiates the reaction. […] Absorbance measurements were obtained using the BMG Phera Star plate-reading spectrophotometer. Purified human DHODH was purchased from Proteros (cat. No. PR-0044). Chemicals were purchased from Sigma-Aldrich, Teknova, and Avanti Polar Lipids. Liquid handling was performed using Labcyte Echo and Formulatrix Tempest.

MOLM-13 cells = assay: MOLM-13 cellular assay (CellTiter-Glo cell viability); format: cell-based; details: 72 hours exposure, cell viability by CellTiter-Glo
Method: In Vitro Assay: MOLM-13 Cellular Assay
MOLM-13 cells were obtained from DSMZ and were maintained in RPMI 1640+Glutamax+25 mM HEPES (Invitrogen, catalog number 72400) supplemented with 10% heat inactivated fetal bovine serum (FBS; Invitrogen, catalog number 16140). The day prior to assay set-up, cells were pelleted, resuspended in fresh media, counted, and cells were plated at 0.4×10^6 cell/mL in a T150 flask. On the day of the assay, cells were pelleted, resuspend in fresh media, counted and seeded at 5,000 cells/well in white opaque 96-well tissue culture treated microplates (Perkin Elmer, catalog number 6005680). Cells were exposed to different concentrations of test compounds at 37° C., 5% CO2 for 72 hours immediately after seeding. Cell viability was acquired on a Perkin Elmer Envision 2104 multilabel reader using the CellTiter-Glo assay (Promega) according to the manufacturer's instructions.

T1 sequence (Q02127 whole entry): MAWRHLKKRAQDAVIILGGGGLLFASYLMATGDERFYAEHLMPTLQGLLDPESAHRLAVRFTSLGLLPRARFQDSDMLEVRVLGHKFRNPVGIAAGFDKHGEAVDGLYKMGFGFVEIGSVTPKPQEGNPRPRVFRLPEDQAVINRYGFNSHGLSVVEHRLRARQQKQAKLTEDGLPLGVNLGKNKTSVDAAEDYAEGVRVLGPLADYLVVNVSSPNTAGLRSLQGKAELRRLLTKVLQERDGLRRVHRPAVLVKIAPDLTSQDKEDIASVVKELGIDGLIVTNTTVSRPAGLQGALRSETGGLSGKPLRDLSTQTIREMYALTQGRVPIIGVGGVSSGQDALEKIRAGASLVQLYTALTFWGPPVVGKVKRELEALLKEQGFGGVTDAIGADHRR

SMILES	IC50 (human DHODH)	IC50 (MOLM-13 cells)	IC50 (MOLM-13 cells; Homo sapiens, MOLM-13, 72 h)
C=C(C)[C@H]1CN(c2c(C)cc(C)nc2Cl)C(=O)c2cc(F)c(-n3nc(CO)n(CC)c3=O)cc21 (single isomer, unassigned; atropisomer 1) [Example 59, Atropisomer 1, (R *)-2-(2-Chloro-4,6-dimethylpyridin-3-yl)-6-(4-ethyl-3-(hydroxymethyl)-5-oxo-4,5-dihydro-1H-1,2,4-triazol-1-yl)-7-fluoro-4-(prop-1-en-2-yl)-3,4-dihydroisoquinolin-1(2H)-one]	> 100 nM	1860 nM	
C=C(C)C1CN(c2cc(C)ccc2F)C(=O)c2cc(F)c(-n3nc(CO)n(CC)c3=O)cc21 (single isomer, unassigned) [Example 40, (R *)-6-(4-Ethyl-3-(hydroxymethyl)-5-oxo-4,5-dihydro-1H-1,2,4-triazol-1-yl)-7-fluoro-2-(2-fluoro-5-methylphenyl)-4-(prop-1-en-2-yl)-3,4-dihydroisoquinolin-1(2H)-one]	40 nM	52.9 nM	
CCn1c(CO)nn(-c2ccc3c(c2)C(C(C)C)CN(c2c(F)cccc2Cl)C3=O)c1=O (racemic) [Example 13, Racemic-2-(2-Chloro-6-fluorophenyl)-6-(4-ethyl-3-(hydroxymethyl)-5-oxo-4,5-dihydro-1H-1,2,4-triazol-1-yl)-4-isopropyl-3,4-dihydroisoquinolin-1(2H)-one]	20 nM		7.2 nM
C=C(C)[C@@H]1CN(c2ccccc2Cl)C(=O)c2cc(F)c(-n3nc(CO)n(CC)c3=O)cc21 (stereo in doubt) [Example 34]	0.9 nM		1.06 nM
CCn1c(CO)nn(-c2cc3c(cc2F)C(=O)N(c2cc(C)ccc2F)CN3C(C)C)c1=O [Example 26, 7-(4-Ethyl-3-(hydroxymethyl)-5-oxo-4,5-dihydro-1H-1,2,4-triazol-1-yl)-6-fluoro-3-(2-fluoro-5-methylphenyl)-1-isopropyl-2,3-dihydroquinazolin-4(1H)-one]	20 nM		27.5 nM
CCn1c(CO)nn(-c2cc3c(cc2F)C(=O)N(c2c(F)cncc2Cl)CN3C(C)C)c1=O [Example 29, 3-(3-Chloro-5-fluoropyridin-4-yl)-7-(4-ethyl-3-(hydroxymethyl)-5-oxo-4,5-dihydro-1H-1,2,4-triazol-1-yl)-6-fluoro-1-isopropyl-2,3-dihydroquinazolin-4(1H)-one]	20 nM		27.3 nM
C=C(C)C1CN(c2ccccc2C)C(=O)c2cc(F)c(-n3nc(CO)n(CC)c3=O)cc21 (single isomer, unassigned) [Example 41, (S*)-6-(4-Ethyl-3-(hydroxymethyl)-5-oxo-4,5-dihydro-1H-1,2,4-triazol-1-yl)-7-fluoro-4-(prop-1-en-2-yl)-2-(o-tolyl)-3,4-dihydroisoquinolin-1(2H)-one]	1 nM	1.99 nM	
CCn1c(CO)nn(-c2cc3c(cc2F)C(=O)N(c2ccccc2Cl)CC3C(C)C)c1=O (single isomer, unassigned) [Example 36, (S*)-2-(2-Chlorophenyl)-6-(4-ethyl-3-(hydroxymethyl)-5-oxo-4,5-dihydro-1H-1,2,4-triazol-1-yl)-7-fluoro-4-isopropyl-3,4-dihydroisoquinolin-1(2H)-one]	30 nM	31.6 nM	
CCCCN1CN(c2c(F)cccc2Cl)C(=O)c2cc(F)c(-n3nc(CO)n(CC)c3=O)cc21 [Example 20, 1-Butyl-3-(2-chloro-6-fluorophenyl)-7-(4-ethyl-3-(hydroxymethyl)-5-oxo-4,5-dihydro-1H-1,2,4-triazol-1-yl)-6-fluoro-2,3-dihydroquinazolin-4(1H)-one]	5 nM		10.2 nM
C=C(C)[C@@H]1CN(c2c(C)cnc(OC)c2Cl)C(=O)c2cc(F)c(-n3nc(CO)n(CC)c3=O)cc21 (single isomer, unassigned; atropisomer 2) [Example 64, Atropisomer 2, (S*)-2-(3-Chloro-2-methoxy-5-methylpyridin-4-yl)-6-(4-ethyl-3-(hydroxymethyl)-5-oxo-4,5-dihydro-1H-1,2,4-triazol-1-yl)-7-fluoro-4-(prop-1-en-2-yl)-3,4-dihydroisoquinolin-1(2H)-one]	60 nM	15.3 nM	
CC[C@@H](C)[C@H]1CN(c2c(F)cccc2Cl)C(=O)c2cc(F)c(-n3nc(CO)n(CC)c3=O)cc21 (relative stereo) [Example 72, (R*)-4-((R*)-sec-Butyl)-2-(2-chloro-6-fluorophenyl)-6-(4-ethyl-3-(hydroxymethyl)-5-oxo-4,5-dihydro-1H-1,2,4-triazol-1-yl)-7-fluoro-3,4-dihydroisoquinolin-1(2H)-one]	5 nM		6.57 nM

Continued by falling IC50 (human DHODH), values first:

IC50 (human DHODH)	IC50 (MOLM-13 cells)	IC50 (MOLM-13 cells; Homo sapiens, MOLM-13, 72 h)	SMILES
20 nM	15.5 nM		CCn1c(CO)nn(-c2cc3c(cc2F)C(=O)N(c2ccccc2Cl)CC3C(C)C)c1=O (single isomer, unassigned) [Example 37, (R *)-2-(2-Chlorophenyl)-6-(4-ethyl-3-(hydroxymethyl)-5-oxo-4,5-dihydro-1H-1,2,4-triazol-1-yl)-7-fluoro-4-isopropyl-3,4-dihydroisoquinolin-1(2H)-one]
8 nM		12.2 nM	C=C(C1CN(c2c(F)cccc2Cl)C(=O)c2ccc(-n3nc(CO)n(CC)c3=O)cc21)C(F)(F)F (racemic) [Example 73, Racemic 2-(2-Chloro-6-fluorophenyl)-6-(4-ethyl-3-(hydroxymethyl)-5-oxo-4,5-dihydro-1H-1,2,4-triazol-1-yl)-4-(3,3,3-trifluoroprop-1-en-2-yl)-3,4-dihydroisoquinolin-1(2H)-one]
2 nM	2.96 nM		CCn1c(CO)nn(-c2cc3c(cc2F)C(=O)N(c2c(C)cnc(OC)c2Cl)CC3C(C)C)c1=O (single isomer, unassigned) [Example 66, (S*)-2-(3-Chloro-2-methoxy-5-methylpyridin-4-yl)-6-(4-ethyl-3-(hydroxymethyl)-5-oxo-4,5-dihydro-1H-1,2,4-triazol-1-yl)-7-fluoro-4-isopropyl-3,4-dihydroisoquinolin-1(2H)-one]
1.7 nM		1 nM	C=C(C)C1CN(c2c(F)cccc2Cl)C(=O)c2ccc(-n3nc(CO)n(CC)c3=O)cc21 (racemic) [Example 11, Racemic-2-(2-Chloro-6-fluorophenyl)-6-(4-ethyl-3-(hydroxymethyl)-5-oxo-4,5-dihydro-1H-1,2,4-triazol-1-yl)-4-(prop-1-en-2-yl)-3,4-dihydroisoquinolin-1(2H)-one]
0.7 nM		0.962 nM	CC[C@H](C)N1CN(c2c(F)cccc2Cl)C(=O)c2cc(F)c(-n3nc(CO)n(CC)c3=O)nc21 [Example 31, (S)-1-(sec-Butyl)-3-(2-chloro-6-fluorophenyl)-7-(4-ethyl-3-(hydroxymethyl)-5-oxo-4,5-dihydro-1H-1,2,4-triazol-1-yl)-6-fluoro-2,3-dihydropyrido[2,3-d]pyrimidin-4(1H)-one]
0.3 nM	< 1.69 nM		C=C(C)C1CN(c2c(F)cccc2Cl)C(=O)c2cc(F)c(-n3nc(CO)n(CC)c3=O)cc21 (single isomer, unassigned) [Example 69, (S*)-2-(2-Chloro-6-fluorophenyl)-6-(4-ethyl-3-(hydroxymethyl)-5-oxo-4,5-dihydro-1H-1,2,4-triazol-1-yl)-7-fluoro-4-(prop-1-en-2-yl)-3,4-dihydroisoquinolin-1(2H)-one]
